# Where a name gives a salt, the structure may show the parent alone.
# System: SpA BF changes during SpN stimulation
# Test: Local lidocaine block of SpN stimulation-induced changes in splenic artery blood flow
# Assay type: in vivo, pig
# Settings: 2% lidocaine hydrochloride solution applied locally around the implanted SpN cuff
# Experimental: On the experimental day, the animal was sedated with ketamine (1.5 mg/kg) and midazolam (0.5 mg/kg) administered by intramuscular injection. An intravenous catheter was placed in one auricular vein, and anesthesia was induced by propofol (2 mg/Kg) administered intravenously. An endotracheal tube was placed, and anesthesia was maintained with sevoflurane inhalant combined with continuous rate infusion (CRI) of fentanyl (0.2 μg/Kg/min).
# The surgical approach to SpN cuff implantation was as follows. The thoracolumbar junction was supported and slightly elevated using a sand bag. After appropriate surgical preparation (clipping and aseptic scrub with chlorhexidine gluconate and alcohol), the left flank was aseptically draped exposing a 20×25 cm area centered on the second to last rib. A 15 cm skin incision was made in the second to last intercostal space using monopolar electrocautery. The incision was continued through the subcutaneous tissues and intercostal musculature until the peritoneum was exposed. […]
# By slight rotation of the splenic visceral base towards the operator, and placing gentle ventral traction on the spleen, the gastrosplenic ligament at the splenic hilum was incised using Metzembaum scissors, exposing the SpA. […] SpA blood flow readings were tested and finally the rib retractors were partially closed and the exposed incision covered with saline-soaked gauze sponges. […]
smiles,measurement,value
"CCN(CC)CC(=O)Nc1c(C)cccc1C [Lidocaine, lidocaine hydrochloride]",effect on changes in SpA BF caused by SpN stimulation,able to block the changes in SpA BF
